Test results reported in EP0491103B1, “Compositions for therapeutic use comprising organogermanium derivatives” (Larranaga Mendizabal, Eusebio, priority 1990, dated 1992).

What was measured:
[1] = as indicated in Miyao K. et al., DRUGS OF FUTURE 13, no. 5, 1988; cited from earlier work
[2] = test system: macrophages removed from the second Group mice; assay: Test 2: protein synthesis (35S-met.) and DNA synthesis (3H-Thy.) in macrophages removed from treated mice and cultured in vitro for 24 hours; assay type: in vivo, BALB/C mice; conditions: macrophages of second group mice (60 days) cultured 24 hours, water-treated mice = 100%; for relative (percentage) values of DNA synthesis: ³H-Thy.; for relative (percentage) values of protein synthesis: ³⁵S-met.
Description: 15 BALB/C mice (18-20 g) were divided into two groups of 5 and 10 mice. The first group was administered 1 ml of the aqueous solutions described below every 3 days for 30 days (10 sessions), subcutaneously.
The solutions applied were as follows: a) distilled water, b) sodium thiosulphate (25 g/lit), c) formic acid (0.3 g/lit), d) above described organogermanium compound solution, and e) above described organogermanium compound plus formic acid (0.3 g/lit).
Finally, the macrophages removed from the second Group mice were cultured "in vitro" for 24 hours, protein synthesis (using ³⁵S-met. as indicator) and DNA synthesis (using ³H-Thy.) determinations being made therewith.

[3] = test system: macrophages obtained from the mice peritoneum; assay: Test 2: Production of macrophages in mice (peritoneal macrophage count); assay type: in vivo, BALB/C mice; conditions: 1 ml subcutaneously every 3 days; for macrophage counts: after 30 days (10 sessions), first group, distilled water 1.0; for average macrophage counts: at 60 days (20 sessions), second group, distilled water 1.1

O=C(O)C[CH2][Ge](=[O])[O][Ge](=[O])[CH2]CC(=O)O [Ge-132, carboxyethylgermanium sesquioxide]
solubility in water [1]: soluble in water

O=CO [formic acid]
relative (percentage) values of DNA synthesis [2]: 140%
relative (percentage) values of protein synthesis [2]: 115%
macrophage counts [3]: 1.2 millions of microphages per millilitre
average macrophage counts [3]: 1.2 millions of macrophages per millilitre

sodium thiosulphate
relative (percentage) values of DNA synthesis [2]: 102%
relative (percentage) values of protein synthesis [2]: 98%
macrophage counts [3]: 0.9 millions of microphages per millilitre
average macrophage counts [3]: 1.0 millions of macrophages per millilitre
